“And” between values parts separate entries of the source, which are not always exact repeats. Identical values can stand only once.
Experiments:
[1] = target: T1, RIPK2 (Homo sapiens, UniProt O43353); assay: RIPK2 degradation in THP-1 cells, capillary-based immunoassay, 18 h; format: cell-based; design: endogenous in cells; host or cells: THP-1 (ATCC TIB-202); conditions: for RIPK2 level relative to DMSO control, mean / RIPK2 level relative to DMSO control, replicate: THP-1, 18 h
Experimental: The compounds were incubated with THP-1 cells for 18 h after which RIPK2 levels were determined using a capillary-based immunoassay (n = 3). All three PROTACs potently degraded RIPK2 in a concentration dependent manner (Fig. 1). […]. This discrepancy between the in vitro RIPK2 degradation and binding potency provides possible evidence for a catalytic mechanism of action of this compound.
(§1) Before treatment with compound or vehicle, THP1 cells, human and rat PBMCs were counted using Vi-Cell cell counter (Invitrogen) and adjusted to a final cell density of […] using complete growth medium. Cells or whole blood were treated with vehicle (0.1% DMSO) or fixed concentrations of compound up to 1 μM in half log unit increments and incubated for the time period indicated in the figure.
Simple Western immunoassay: Cell lysates were mixed with 5× concentrated master mix (Protein Simple) and denatured at 95 °C on a heat block for 5 min together with the provided ladder (Protein Simple). Antibodies were diluted in the provided buffer as following: anti-RIPK2 (1:10 or 1:50), anti-cIAP1(1:10), anti-cIAP2 (1:10), anti-XIAP (1:10), mouse anti-β-actin (Abcam - 1:1000), rabbit anti-β-actin (Abcam - 1:50) and anti-vinculin (1:100). All reagents (blocking buffer, primary and secondary antibodies, streptavadin, luminol/peroxide, separation matrix, stacking matrix and water) were added to the Protein Simple plate containing the ladder and lysates and the plate was placed in a Protein Simple Western instrument and the Simple Western default size assay protocol was used. All samples were analyzed using the associated Compass software 3.1.7. The area under the peak values obtained for RIPK2, cIAP1, cIAP2 or XIAP were normalized relative to the control protein values.
In vitro experimental data were analyzed using a 4-parameter logistic equation in GraphPad Prism 5.0.4. to generate an estimate of the half-maximal concentration and maximal degradation, DC50 and Dmax value respectively, for concentration-degradation relationships. Cytokine levels were analyzed in a similar manner to yield IC50 and Imax values. […] Where analysis to a sigmoidal relationship was not possible, the data points are shown as mean ± s.e.m.

[2] = test system: MDP-induced TNFα release; assay: MDP-induced TNFα release in human whole blood; format: cell-based; conditions: inhibition of MDP-induced TNFα release
Experimental: as §1
Where the assessment of cytokines was performed, L18-MDP was added to the cell culture media (1 μg/ml) or to the rat blood samples (100 ng/ml) and samples were incubated for up to 4 h. […]
Cytokine measurement assay: Cytokine levels were measured in rat plasma or rat PBMCs cell culture supernatants using rat V-Plex TNFα, in human plasma or human PBMCs cell culture supernatants with either TNFα tissue culture or 7-plex kit. Rat serum and tissues samples from the in vivo L18-MDP acute inflammation model were analyzed using the rat TNFα, Il-6 and IL-8 U-Plex kits. […] Levels of cytokines spontaneously released from human colon biopsies cell culture supernatants were measured using Human IL-1 beta/IL-1F2 DuoSet ELISA (Bio-techne), Human IL-6 ELISA (Immunotools) and Human TNF-alpha DuoSet ELISA (Bio-techne). […] The MSD plates were analyzed using the MSD sector imager 6000 plate reader and cytokines concentration (pg/ml) was obtained by using the MSD DISCOVERY WORKBENCH software version 4.0.12.1 […]

[3] = target: T1, RIPK2; assay: RIPK2 fluorescence polarisation binding assay
[4] = Microsomal CLint, rat; format: in vitro ADME; conditions: rat microsomes
Experimental: (§2) Metabolic stability was performed at Cyprotex (UK). Pooled liver microsomes / cryopreserved pooled hepatocytes were purchased from a commercial supplier (BD Biosciences or Corning/InVitro Technologies).
(§3) The final incubation volume was 500 μL. A minus cofactor control incubation was included for each compound tested where 0.05 M phosphate buffer pH 7.4 was added instead of NADPH (minus NADPH). Each compound was incubated for 0, 5, 15, 30, and 45 min. The control (minus NADPH) was incubated for 45 min only.
(§4) All incubations were terminated by transferring 50 μL of incubate to 100 μL of acetonitrile containing internal standard at the appropriate time points. The termination plates were centrifuged at 2500 rpm for 20–30min at 4 °C to precipitate the protein. Following protein precipitation, samples were analysed using quantitative LC-MS/MS. A plot of ln peak area ratio (compound peak area/internal standard peak area) against time, yielded the gradient of the line.
(§5) Calculated intrinsic clearance values of control compounds were compared with the Cyprotex data library to confirm the appropriate activity of the microsomal/hepatocyte batch and data acceptance.

[5] = Microsomal CLint, human; format: in vitro ADME; conditions: human microsomes
Experimental: as §2, §3, §4, §5

[6] = ChromLogD7.4 high-throughput chromatographic lipophilicity; format: physicochemical
[7] = High-throughput precipitation solubility, chemiluminescent nitrogen-specific detection (CLND); format: physicochemical; conditions: high-throughput precipitation assay

T1 sequence (O43353 whole entry): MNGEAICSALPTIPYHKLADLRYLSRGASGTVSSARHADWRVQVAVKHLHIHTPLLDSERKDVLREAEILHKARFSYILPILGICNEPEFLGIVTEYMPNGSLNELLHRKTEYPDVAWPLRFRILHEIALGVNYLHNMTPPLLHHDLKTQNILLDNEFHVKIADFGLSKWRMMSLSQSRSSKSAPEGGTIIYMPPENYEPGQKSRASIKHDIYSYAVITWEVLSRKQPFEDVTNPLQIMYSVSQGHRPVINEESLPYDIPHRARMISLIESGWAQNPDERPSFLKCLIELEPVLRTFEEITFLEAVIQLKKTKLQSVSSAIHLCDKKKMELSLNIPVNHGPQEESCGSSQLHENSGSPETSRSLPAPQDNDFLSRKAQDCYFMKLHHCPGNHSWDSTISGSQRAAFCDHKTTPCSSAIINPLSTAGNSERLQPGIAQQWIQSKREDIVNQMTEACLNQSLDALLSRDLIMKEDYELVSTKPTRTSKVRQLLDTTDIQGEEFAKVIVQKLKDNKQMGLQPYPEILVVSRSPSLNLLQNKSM

In the case of `CN[C@@H](C)C(=O)N[C@H](C(=O)N1Cc2cc(OCCOCCOCCOCCOc3cc4nccc(Nc5ccc6scnc6c5)c4cc3S(=O)(=O)C(C)(C)C)ccc2C[C@H]1C(=O)N[C@@H]1CCCc2ccccc21)C(C)(C)C` [PROTAC 2], the “RIPK2 level relative to DMSO control, mean” value ([1]; concentration 5.64503e-11 (uM)) is reported as 117.46%, the “RIPK2 level relative to DMSO control, replicate” value ([1]; concentration 5.64503e-11 (uM)) is reported as 117.27% and 131.32% and 103.77% and the “RIPK2 level relative to DMSO control, mean” value ([1]; concentration 1.69351e-10 (uM)) is reported as 97.22%. For the same compound, the “RIPK2 level relative to DMSO control, replicate” value ([1]; concentration 1.69351e-10 (uM)) was 71.86% and 108.98% and 110.82%, the “RIPK2 level relative to DMSO control, mean” value ([1]; concentration 5.08053e-10 (uM)) was 57.20% and the “RIPK2 level relative to DMSO control, replicate” value ([1]; concentration 5.08053e-10 (uM)) was 41.71% and 72.70% and 57.18%. For the same compound, the “RIPK2 level relative to DMSO control, mean” value ([1]; concentration 1.52416e-9 (uM)) was 26.83%, the “RIPK2 level relative to DMSO control, replicate” value ([1]; concentration 1.52416e-9 (uM)) was 18.29% and 36.88% and 25.33% and the “RIPK2 level relative to DMSO control, mean” value ([1]; concentration 4.57247e-9 (uM)) was 15.28%. The “RIPK2 level relative to DMSO control, replicate” value ([1]; concentration 4.57247e-9 (uM)) was 12.82% and 16.44% and 16.58%, the “RIPK2 level relative to DMSO control, mean” value ([1]; concentration 1.37174e-8 (uM)) was 8.47% and the “RIPK2 level relative to DMSO control, replicate” value ([1]; concentration 1.37174e-8 (uM)) was 4.51% and 15.08% and 5.82%. For the same compound, the “RIPK2 level relative to DMSO control, mean” value ([1]; concentration 4.11523e-8 (uM)) was 4.73%, the “RIPK2 level relative to DMSO control, replicate” value ([1]; concentration 4.11523e-8 (uM)) was 6.91% and 6.83% and 0.44% and the “RIPK2 level relative to DMSO control, mean” value ([1]; concentration 1.23457e-7 (uM)) was 7.39%. The “RIPK2 level relative to DMSO control, replicate” value ([1]; concentration 1.23457e-7 (uM)) was 4.63% and 11.01% and 6.53%, the “RIPK2 level relative to DMSO control, mean” value ([1]; concentration 3.7037e-7 (uM)) was 9.35% and the “RIPK2 level relative to DMSO control, replicate” value ([1]; concentration 3.7037e-7 (uM)) was 5.28% and 16.09% and 6.68%. The “RIPK2 level relative to DMSO control, mean” value ([1]; concentration 1.11111e-6 (uM)) was 11.12%, the “RIPK2 level relative to DMSO control, replicate” value ([1]; concentration 1.11111e-6 (uM)) was 12.33% and 13.80% and 7.23% and the “RIPK2 level relative to DMSO control, mean” value ([1]; concentration 3.33333e-6 (uM)) was 14.86%. The “RIPK2 level relative to DMSO control, replicate” value ([1]; concentration 3.33333e-6 (uM)) was 10.80% and 18.84% and 14.95%, the “RIPK2 level relative to DMSO control, mean” value ([1]; concentration 1e-5 (uM)) was 10.81% and the “RIPK2 level relative to DMSO control, replicate” value ([1]; concentration 1e-5 (uM)) was 10.44% and 15.52% and 6.46%. The “pDC50 (log half-maximal degradation concentration) of RIPK2” value ([1]; THP-1 cells, 18 h, n = 3) was 9.4 ± 0.1, the “hWB MDP pIC50 ± SEM (n)” value [2] was 7.95 ± 0 and the IC50 [3] was 10 nM. The microsomal turnover [4] was 11 mL/min/g liver, the microsomal turnover [5] was 29 mL/min/g liver and the ChromLogD7.4 [6] was 6.1. For the same compound, the “CLND solubility, in words” value [7] was “poor solubility”.

Reference: paper PMC7083851, “Extended pharmacodynamic responses observed upon PROTAC-mediated degradation of RIPK2” (Communications Biology, 2020)
